The text below walks through data of EP2380890A1, “New 7,8-dihydro-1,6-naphthyridin-5(6h)-one-derivatives as PDE4 inhibitors” (Almirall, S.A., priority 2010, dated 2011).

This test addresses PDE4. The experiment in a line: PDE4 assay: [3H] cAMP Scintillation Proximity Assay (SPA) of phosphodiesterase activity. It counts as biochemical. To be noted: yeast extract of recombinant PDE4 enzyme, 30 nM [3H] cAMP, 1 h at room temperature, pH 7.5. As for the experimental part:
Measurement of Phosphodiesterase Activity was done using a [3H] cAMP Scintillation Proximity Assay (SPA) (GE Healthcare). Compounds to be tested were disolved in DMSO at a stock concentration of 1mM and serial dilutions were prepared in 50% DMSO to determine IC50s.
The reactions were conducted in 96-well plates (Corning, Ref.3604) at room temperature, in 0.1 mL of reaction buffer containing (final concentrations): 50 mM Tris-HCl, pH 7.5, 8.3 mM MgCl2, 1.7 mM EGTA, 30 nM [3H] cAMP (approximately 150000 dpm/well) with or without the inhibitors. The reaction was initiated by adding yeast extract of recombinant PDE4 enzyme.
Plates were shaken for 1 h at room temperature and the incubation was terminated by adding 50 µL (0.5 mg /well) of SPA ytrium silicate beads (RPNQ 0150; GE Healthcare) in the presence of zinc sulfate. Plates were stored overnight in the dark and read on a TRILUX microtiter plate reader (Perkin Elmer).
Turning to `COc1cccc(Nc2cc(-c3ccccc3)nc3c2C(=O)NCC3)c1` [Example 1, 4-[(3-Methoxyphenyl)amino]-2-phenyl-7,8-dihydro-1,6-naphthyridin-5(6H)-one], the IC50 was determined as 1.6 nM.

Consider `O=C1NCCc2nc(-c3ccccc3)cc(Nc3ccc(CCO)cc3)c21` [Example 2, 4-{[4-(2-Hydroxyethyl)phenyl]amino}-2-phenyl-7,8-dihydro-1,6-naphthyridin-5(6H)-one], for which the IC50 came to 12 nM.

For `COc1cccc(Nc2cc(-c3cccc(OC)c3)nc3c2C(=O)NCC3)c1` [Example 8, 2-(3-Methoxyphenyl)-4-[(3-methoxyphenyl)amino]-7,8-dihydro-1,6-naphthyridin-5(6H)-one], the IC50 amounted to 8 nM.

As for `COc1cccc(Nc2cc(-c3ccccc3OC)nc3c2C(=O)NCC3)c1` [Example 9, 2-(2-Methoxyphenyl)-4-[(3-methoxyphenyl)amino]-7,8-dihydro-1,6-naphthyridin-5(6H)-one], the IC50 worked out at 32 nM.

In the case of `COc1cccc(Nc2cc(-c3cccc(-c4cccc(C(N)=O)c4)c3)nc3c2C(=O)NCC3)c1` [Example 12, 3'-{4-[(3-Methoxyphenyl)amino]-5-oxo-5,6,7,8-tetrahydro-1,6-naphthyridin-2-yl}biphenyl-3-carboxamide], the IC50 worked out at 0.28 nM.

With `COc1cccc(Nc2cc(-c3cccc(-c4ccc(C(=O)O)cc4)c3)nc3c2C(=O)NCC3)c1` [Example 13, 3'-{4-[(3-Methoxyphenyl)amino]-5-oxo-5,6,7,8-tetrahydro-1,6-naphthyridin-2-yl}biphenyl-4-carboxylic acid], the IC50 was 0.34 nM.

With `COc1cccc(Nc2cc(-c3cccc(-c4cccc(C(=O)NCCN(C)C)c4)c3)nc3c2C(=O)NCC3)c1` [Example 14, N-[2-(Dimethylamino)ethyl]-3'-{4-[(3-methoxyphenyl)amino]-5-oxo-5,6,7,8-tetrahydro-1,6-naphthyridin-2-yl}biphenyl-3-carboxamide], the IC50 was 0.23 nM.

For `COc1cccc(Nc2cc(-c3cccc(Sc4cccc(OC)c4)c3)nc3c2C(=O)NCC3)c1` [Example 16, 4-[(3-Methoxyphenyl)amino]-2-{3-[(3-methoxyphenyl)thio]phenyl}-7,8-dihydro-1,6-naphthyridin-5(6H)-one], the IC50 came out at 1.6 nM.

As for `O=C1NCCc2nc(-c3ccccc3)cc(NCc3ccncc3)c21` [Example 17, 2-Phenyl-4-[(pyridin-4-ylmethyl)amino]-7,8-dihydro-1,6-naphthyridin-5(6H)-one], the IC50 turned out to be 25 nM.

For the compound `NC(=O)c1ccc(Nc2cc(-c3ccccc3)nc3c2C(=O)NCC3)cc1` [Example 18, 4-[(5-Oxo-2-phenyl-5,6,7,8-tetrahydro-1,6-naphthyridin-4-yl)amino]benzamide], the IC50 worked out at 1.5 nM.

As for `COc1cc(Nc2cc(-c3ccccc3)nc3c2C(=O)NCC3)ccc1C(=O)O` [Example 19, 2-Methoxy-4-[(5-oxo-2-phenyl-5,6,7,8-tetrahydro-1,6-naphthyridin-4-yl)amino]benzoic acid], the IC50 was 2.3 nM.

In the case of `COc1cccc(Nc2cc(-c3ccncc3)nc3c2C(=O)NCC3)c1` [Example 22, 4-[(3-Methoxyphenyl)amino]-2-pyridin-4-yl-7,8-dihydro-1,6-naphthyridin-5(6H)-one], the IC50 was found to be 3.6 nM.

Turning to `O=C1NCCc2nc(-c3ccccc3)cc(Nc3cccc4ncccc34)c21` [Example 24, 2-Phenyl-4-(quinolin-5-ylamino)-7,8-dihydro-1,6-naphthyridin-5(6H)-one], the IC50 is 0.96 nM.

With `O=C(O)c1ccc(Nc2cc(-c3ccccc3)nc3c2C(=O)NCC3)cc1` [Example 25, 4-[(5-Oxo-2-phenyl-5,6,7,8-tetrahydro-1,6-naphthyridin-4-yl)amino]benzoic acid], the IC50 is 9 nM.

Take `COc1cccc(Nc2cc(-c3ccccc3)nc3c2C(=O)NC(C)C3)c1` (stereo not drawn) [Example 26, 4-[(3-Methoxyphenyl)amino]-7-methyl-2-phenyl-7,8-dihydro-1,6-naphthyridin-5(6H)-one]: the IC50 came out at 117 nM.

Consider `COc1cccc(Nc2nc(-c3ccccc3)nc3c2C(=O)NCC3)c1` [Example 32, 4-[(3-Methoxyphenyl)amino]-2-phenyl-7,8-dihydropyrido[4,3-d]pyrimidin-5(6H)-one], for which the IC50 stood at 52 nM.

With `COc1cccc(Nc2cc(C3CC3)nc3c2C(=O)NCC3)c1` [Example 33, 2-Cyclopropyl-4-[(3-methoxyphenyl)amino]-7,8-dihydro-1,6-naphthyridin-5(6H)-one], the IC50 is 9 nM.

In the case of `COc1cccc(Nc2cc(-c3cccc(-c4cc(C(=O)O)ccc4Cl)c3)nc3c2C(=O)NCC3)c1` [Example 35, 6-Chloro-3'-{4-[(3-methoxyphenyl)amino]-5-oxo-5,6,7,8-tetrahydro-1,6-naphthyridin-2-yl}biphenyl-3-carboxylic acid], the IC50 stood at 0.81 nM.

For the compound `O=C1NCCc2nc(-c3ccccc3)cc(Nc3cccc4cnccc34)c21` [Example 37, 4-(Isoquinolin-5-ylamino)-2-phenyl-7,8-dihydro-1,6-naphthyridin-5(6H)-one], the IC50 amounted to 14 nM.

For `O=C1NCCc2nc(-c3ccccc3)cc(Nc3ccc4ncccc4c3)c21` [Example 38, 2-Phenyl-4-(quinolin-6-ylamino)-7,8-dihydro-1,6-naphthyridin-5(6H)-one], the IC50 was 2.3 nM.

As for `O=C1NCCc2nc(-c3ccccc3)cc(Nc3n[nH]c4ncccc34)c21` [Example 41, 2-Phenyl-4-(1H-pyrazolo[3,4-b]pyridin-3-ylamino)-7,8-dihydro-1,6-naphthyridin-5(6H)-one], the IC50 is 6 nM.

On to `COc1cccc(Nc2cc(-c3cccc(-c4cc(C(=O)O)ccc4O)c3)nc3c2C(=O)NCC3)c1` [Example 43, 6-Hydroxy-3'-{4-[(3-methoxyphenyl)amino]-5-oxo-5,6,7,8-tetrahydro-1,6-naphthyridin-2-yl}biphenyl-3-carboxylic acid], for which the IC50 turned out to be 10 nM.

As to `COc1cccc(Nc2cc(-c3ccccc3)nc3c2C(=O)NCC3C)c1` (stereo not drawn) [Example 44, 4-[(3-Methoxyphenyl)amino]-8-methyl-2-phenyl-7,8-dihydro-1,6-naphthyridin-5(6H)-one], the IC50 came out at 640 nM.

For the compound `O=C1NCCc2nc(-c3ccccc3)cc(Nc3ccc(C[C@@H](O)CO)cc3)c21` [Example 47, 4-({4-[(2R)-2,3-dihydroxypropyl]phenyl}amino)-2-phenyl-7,8-dihydro-1,6-naphthyridin-5(6H)-one], the IC50 came to 9 nM.

As to `O=C(NC1CC1)c1cccc(-c2cccc(-c3cc(Nc4cccc5ncccc45)c4c(n3)CCNC4=O)c2)c1` [Example 49, N-Cyclopropyl-3'-[5-oxo-4-(quinolin-5-ylamino)-5,6,7,8-tetrahydro-1,6-naphthyridin-2-yl]biphenyl-3-carboxamide], the IC50 was 0.17 nM.

With `O=C1NCCc2nc(-c3ccccc3)cc(Nc3cccc4c3ccc[n+]4[O-])c21` [Example 51, 4-[(1-Oxidoquinolin-5-yl)amino]-2-phenyl-7,8-dihydro-1,6-naphthyridin-5(6H)-one], the IC50 worked out at 0.43 nM.

As to `O=C(NC1CC1)c1cccc(-c2cccc(-c3cc(Nc4cccc5c4ccc[n+]5[O-])c4c(n3)CCNC4=O)c2)c1` [Example 56, N-Cyclopropyl-3'-{4-[(1-oxidoquinolin-5-yl)amino]-5-oxo-5,6,7,8-tetrahydro-1,6-naphthyridin-2-yl}biphenyl-3-carboxamide], the IC50 stood at 0.05 nM.

Regarding `N#C/N=C1\NCCc2nc(-c3ccc(F)c(F)c3)cc(Nc3cccc4ncccc34)c21` [Example 57, [(5Z)-2-(3,4-Difluorophenyl)-4-(quinolin-5-ylamino)-7,8-dihydro-1,6-naphthyridin-5(6H)-ylidene]cyanamide], the IC50 worked out at 0.9 nM.

In the case of `CN(C)CCCNC(=O)c1cccc(-c2cccc(-c3cc(Nc4cccc5ncccc45)c4c(n3)CCNC4=O)c2)c1` [Example 59, N-[3-(Dimethylamino)propyl]-3'-[5-oxo-4-(quinolin-5-ylamino)-5,6,7,8-tetrahydro-1,6-naphthyridin-2-yl]biphenyl-3-carboxamide], the IC50 was 0.105 nM.

For the compound `Cc1c(F)cc(C(=O)NC2CC2)cc1-c1cccc(-c2cc(Nc3cccc4ncccc34)c3c(n2)CCNC3=O)c1` [Example 61, N-Cyclopropyl-5-fluoro-6-methyl-3'-[5-oxo-4-(quinolin-5-ylamino)-5,6,7,8-tetrahydro-1,6-naphthyridin-2-yl]biphenyl-3-carboxamide], the IC50 was 0.05 nM.
